# Reference: publication PMC8480593, “Anti-influenza A virus activity and structure–activity relationship of a series of nitrobenzoxadiazole derivatives” (Journal of Enzyme Inhibition and Medicinal Chemistry, 2021)
# Like-named read-outs stand apart in the source and are kept apart here.
# Columns and labels:
# [1] = test system: influenza virus A/Puerto Rico/8/34 H1N1 (PR8); assay: microbe, parasite or virus in culture; format: cell-based
# [2] = test system: influenza virus A/Puerto Rico/8/34 H1N1 (PR8); details: A549 cells, CC50 by Trypan Blue exclusion
# [3] = test system: influenza virus A/Puerto Rico/8/34 H1N1 (PR8); details: A549 cells; CC50 from Cell Tag in mock infected cells, IC50 by ICW
# [4] = in vitro; details: human
# [5] = test system: influenza virus A/Puerto Rico/8/34 H1N1 (PR8); assay: microbe, parasite or virus in culture; details: H1N1|PR8, A549, read-out: IC50, HAU – A549
# [6] = test system: influenza virus A/Puerto Rico/8/34 H1N1 (PR8); assay: microbe, parasite or virus in culture; details: unidentified influenza virus, A549, read-out: IC50, ICW – A549
# [7] = test system: MDCK cells; assay: Cytotoxicity on MDCK cells (MTT and Trypan Blue exclusion); details: 1–30 µM, Toxic = toxic at all tested concentrations
# [8] = unidentified influenza virus, MDCK, 24 h, read-out: IC50 (concentration required to inhibit viral replication of 50%), MDCK cells infected with PR8 (m.o.i. 0.001), HAU in supernatants 24 h p.i., Inactive = at maximum tested concentration (30 µM)
# [9] = MDCK cells infected with PR8 (m.o.i. 0.001), HAU in supernatants 24 h p.i., Inactive = at maximum tested concentration (30 µM)
smiles,measurement,setting,value
O=[N+]([O-])c1ccc(SCCCCCCCCO)c2nonc12 [Compound 6],IC50,[1]; [8],> 30 µM
"O=C(O)CCC(=O)OCCCCSc1ccc([N+](=O)[O-])c2nonc12 [Compound 9, 4–(4-((7-nitrobenzo[c][1,2,5]oxadiazol-4-yl)thio)butoxy)-4-oxobutanoic acid]",IC50 (concentration required to inhibit viral replication of 50%),[1],effective against IV
same,IC50,[1]; [8],17.1 ± 0.9 µM
same,melting point,,90 to 93 °C
O=C(O)CCC(=O)OCCCCCCSc1ccc([N+](=O)[O-])c2nonc12 [Compound 10],IC50,[1]; [8],22.2 ± 1.4 µM
"O=C(O)CCC(=O)OCCOCCSc1ccc([N+](=O)[O-])c2nonc12 [Compound 11, 4–(2–(2-((7-nitrobenzo[c][1,2,5]oxadiazol-4-yl)thio)ethoxy)ethoxy)-4-oxobutanoic acid]",IC50 (concentration required to inhibit viral replication of 50%),[1],effective against IV
same,IC50,[1]; [8],> 30 µM
same,melting point,,74 to 76 °C
COC(=O)CCSc1ccc([N+](=O)[O-])c2nonc12 [Compound 12],IC50 (concentration required to inhibit viral replication of 50%),[1],effective against IV
same,SI (CC50/IC50 HAU – A549),[2],11
same,SI (CC50/IC50 ICW – A549),[3],5
same,CC50 at 24 h,[4],54.5 µM
same,IC50,[5],5.1 ± 0.2 µM
same,IC50,[6],10 ± 0.5 µM
O=C(CCSc1ccc([N+](=O)[O-])c2nonc12)NCCO [Compound 14],IC50 (concentration required to inhibit viral replication of 50%),[1]; [9],Inactive^b
same,IC50,[1]; [8],> 30 µM
O=C1CCN(C(=O)CCSc2ccc([N+](=O)[O-])c3nonc23)CC1 [Compound 16],Cytotoxicity,[7],Toxic^a
COC(=O)C(CSc1ccc([N+](=O)[O-])c2nonc12)NC(=O)OC(C)(C)C (stereo not shown) [Compound 17],IC50 (concentration required to inhibit viral replication of 50%),[1],effective against IV
same,SI (CC50/IC50 HAU – A549),[2],2
same,SI (CC50/IC50 ICW – A549),[3],3
same,IC50,[5],11.7 ± 1 µM
same,IC50,[6],9.6 ± 0.8 µM
"CC(=O)N[C@@H](CSc1ccc([N+](=O)[O-])c2nonc12)C(=O)O [Compound 19, N-acetyl-S-(7-nitrobenzo[c][1,2,5]oxadiazol-4-yl)cysteine]",IC50 (concentration required to inhibit viral replication of 50%),[1],effective against IV
same,IC50,[1]; [8],24 ± 2.3 µM
same,melting point,,166 to 168 °C
CC(C)(C)Sc1ccc([N+](=O)[O-])c2nonc12 [Compound 21],IC50 (concentration required to inhibit viral replication of 50%),[1]; [9],Inactive^b
same,IC50,[1]; [8],> 30 µM
"O=[N+]([O-])c1ccc(Sc2ncccn2)c2nonc12 [Compound 22, 4-nitro-7-(pyrimidin-2-ylthio)benzo[c][1,2,5]oxadiazole]",melting point,,144 to 147 °C
"O=[N+]([O-])c1ccc(Sc2nc3ccccc3[nH]2)c2nonc12 [Compound 23, 4-((1H-benzo[d]imidazol-2-yl)thio)-7-nitrobenzo[c][1,2,5]oxadiazole]",IC50 (concentration required to inhibit viral replication of 50%),[1]; [9],Inactive^b
same,IC50,[1]; [8],> 30 µM
same,melting point,,206 to 208 °C
O=[N+]([O-])c1ccc(SCc2ccccc2)c2nonc12 [Compound 25],IC50 (concentration required to inhibit viral replication of 50%),[1],effective against IV
same,IC50,"[1]; read-out: IC50 (concentration required to inhibit viral replication of 50%), MDCK cells infected with PR8 (m.o.i. 0.001), HAU in supernatants 24 h p.i., Inactive = at maximum tested concentration (30 µM)",6.3 ± 0.5 µM
same,IC50,[1]; [8],< 10 µM
same,SI (CC50/IC50 HAU – A549),[2],6
same,SI (CC50/IC50 ICW – A549),[3],4
same,IC50,[5],1.9 ± 0.1 µM
same,IC50,[6],8.9 ± 0.6 µM
O=C(O)c1ccccc1Sc1ccc([N+](=O)[O-])c2nonc12 [Compound 27],IC50 (concentration required to inhibit viral replication of 50%),[1]; [9],Inactive^b
same,IC50,[1]; [8],> 30 µM
O=C(O)c1cccc(Sc2ccc([N+](=O)[O-])c3nonc23)c1 [Compound 28],IC50 (concentration required to inhibit viral replication of 50%),[1]; [9],Inactive^b
same,IC50,[1]; [8],> 30 µM
CCOC(=O)c1ccc(Sc2ccc([N+](=O)[O-])c3nonc23)cc1 [Compound 30],IC50 (concentration required to inhibit viral replication of 50%),[1]; [9],Inactive^b
same,IC50,[1]; [8],> 30 µM
NC(=O)c1ccc(Sc2ccc([N+](=O)[O-])c3nonc23)cc1 [Compound 31],IC50 (concentration required to inhibit viral replication of 50%),[1]; [9],Inactive^b
same,IC50,[1]; [8],> 30 µM
CN(C)C(=O)c1ccc(Sc2ccc([N+](=O)[O-])c3nonc23)cc1 [Compound 32],IC50,[1]; [8],> 30 µM
O=C(NO)c1ccc(Sc2ccc([N+](=O)[O-])c3nonc23)cc1 [Compound 33],IC50 (concentration required to inhibit viral replication of 50%),[1]; [9],Inactive^b
same,IC50,[1]; [8],> 30 µM
O=C(NCCO)c1ccc(Sc2ccc([N+](=O)[O-])c3nonc23)cc1 [Compound 37],IC50 (concentration required to inhibit viral replication of 50%),[1]; [9],Inactive^b
same,IC50,[1]; [8],> 30 µM
CN(C)CCNC(=O)c1ccc(Sc2ccc([N+](=O)[O-])c3nonc23)cc1 [Compound 38],IC50 (concentration required to inhibit viral replication of 50%),[1]; [9],Inactive^b
same,IC50,[1]; [8],> 30 µM
O=C(O)Cc1ccc(Sc2ccc([N+](=O)[O-])c3nonc23)cc1 [Compound 39],IC50 (concentration required to inhibit viral replication of 50%),[1]; [9],Inactive^b
same,IC50,[1]; [8],> 30 µM
O=C(O)CCc1ccc(Sc2ccc([N+](=O)[O-])c3nonc23)cc1 [Compound 40],IC50 (concentration required to inhibit viral replication of 50%),[1],effective against IV
same,IC50,[1]; [8],18.3 ± 1.6 µM
O=C(O)c1ccc(CSc2ccc([N+](=O)[O-])c3nonc23)cc1 [Compound 41],IC50 (concentration required to inhibit viral replication of 50%),[1],effective against IV
same,IC50,[1]; [8],10.8 ± 0.6 µM
CCOC(=O)c1ccc(CSc2ccc([N+](=O)[O-])c3nonc23)cc1 [Compound 42],IC50,[1]; [8],17.2 ± 1.6 µM
O=[N+]([O-])c1ccc([S+]([O-])CCCCCCO)c2nonc12 (stereo not shown) [Compound 43],IC50 (concentration required to inhibit viral replication of 50%),[1]; [9],Inactive^b
same,IC50,[1]; [8],> 30 µM
O=[N+]([O-])c1ccc(S(=O)(=O)CCCCCCO)c2nonc12 [Compound 44],IC50 (concentration required to inhibit viral replication of 50%),[1]; [9],Inactive^b
same,IC50,[1]; [8],> 30 µM
O=[N+]([O-])c1ccc(NCCCCCCO)c2nonc12 [Compound 45],IC50 (concentration required to inhibit viral replication of 50%),[1]; [9],Inactive^b
same,IC50,[1]; [8],> 30 µM
same,Cytotoxicity,[7],NOT toxic
